For experiment [1], the system named is BWCoV-SW1-3CL. The format is cell-based, Beluga whale coronavirus SW1.
Experiment [2] deals with MERS-CoV-3CL (Middle East respiratory syndrome-related coronavirus, UniProt K9N7C7). The format is cell-based.
For experiment [3], the target named is T1, SARS-CoV-PLP (Severe acute respiratory syndrome coronavirus, UniProt P0C6X7). The experiment can be described thus: cell-based.
Experiment [4] concerns the target T2, Bat-SL-CoVZC45-PLP (Bat SARS-like coronavirus, UniProt A0A2R3SV02). The class given is cell-based.
In experiment [5] the target is Bat-CoV-HKU4-3CL (Bat coronavirus HKU4, UniProt P0C6W3). The class given is cell-based.
In experiment [6] the target is HCoV-NL63-3CL (Human coronavirus NL63, UniProt P0C6X5). The class given is cell-based.
In experiment [7] the target is T3, SARS-CoV-2-3CL (Severe acute respiratory syndrome coronavirus 2, UniProt P0DTD1). The class given is cell-based.
Experiment [8] relates to Bat-SV-CoVZC45-3CL. The format is cell-based, Bat SL-CoVZC45.
Experiment [9] has as its target SARS-CoV-3CL (Severe acute respiratory syndrome coronavirus, UniProt P0C6X7). The format is cell-based.
For experiment [10], the target named is Bat-CoV-HKU9-3CL (Bat coronavirus HKU9, UniProt P0C6W5). The format is cell-based.
Experiment [11] deals with HCoV-HKU1-3CL (Human coronavirus HKU1, UniProt P0C6X2). The class given is cell-based.
In experiment [12] the target is HAV-3C (Human hepatitis A virus genotype IB, UniProt P08617). The class given is cell-based.
Experiment [13] concerns the target CV-B3-3C (Coxsackievirus B3, UniProt P03313). The class given is cell-based.
Experiment [14] has as its target HCoV-229E-3CL (Human coronavirus 229E, UniProt P0C6X1). The format is cell-based.
Experiment [15] deals with T3, SARS-CoV-2-3CL. The experiment can be described thus: cell-based.
Experiment [16] relates to LGTV-NS2B-GS-NS3.
For experiment [17], the system named is POWV-NS2B-GS-NS3. The format is cell-based, tick-borne Powassan virus.
Experiment [18] deals with T1, SARS-CoV-PLP. The class given is cell-based.
Experiment [19] concerns the target T2, Bat-SL-CoVZC45-PLP. The class given is cell-based. The source holds these as a separate data set.
Experiment [20] concerns the target MERS-CoV-PLP (Middle East respiratory syndrome-related coronavirus, UniProt K9N7C7). The format is cell-based.
The target of experiment [21] is T4, SARS-CoV-2 PLP (Severe acute respiratory syndrome coronavirus 2, UniProt P0DTD1). The class given is biochemical.
In experiment [22] the target is T4, SARS-CoV-2 PLP. Nature of the experiment: biochemical.
Experiment [23] deals with SARS-CoV-2. Nature of the experiment: microbe, parasite or virus in culture. The class given is cell-based. Conditions: Severe acute respiratory syndrome coronavirus 2, 24 h, read-out: A549-C3 (ACE2/TMPRSS2) IC50, inhibition of SARS-CoV-2 viral replication.
For experiment [24], the system named is SV-A-3C. The format is cell-based, Salivirus.
The target of experiment [25] is T4, SARS-CoV-2 PLP. The format is cell-based.
For experiment [26], the target named is T4, SARS-CoV-2 PLP. The format is cell-based. This is another data set of the same source.
Experiment [27] relates to SARS-CoV-2. Nature of the experiment: microbe, parasite or virus in culture. The format is cell-based. Conditions: Severe acute respiratory syndrome coronavirus 2, Huh-7, 24 h, read-out: IC50, inhibition of SARS-CoV-2 viral replication in Huh7 cells.
Experiment [28] has as its target SARS-CoV-2 3CL protease (Severe acute respiratory syndrome coronavirus 2, UniProt P0DTD1). The experiment can be described thus: Biochemical inhibition of peptide cleavage by purified SARS-CoV-2 3CL protease (fluorogenic).
Experiment [29] relates to SARS-CoV-2. The format is cell-based.
Experiment [30] has as its target HIV-1-PR (Human immunodeficiency virus type 1 group M subtype B, UniProt P04585). The format is cell-based.
Experiment [31] deals with HIV-2-PR (Human immunodeficiency virus type 2 subtype A, UniProt P04584). The format is cell-based.

Where two headings read alike, the source gives them in different places.

In experiment [1], `N#CCS(=O)(=O)c1cccc[n+]1[O-]` [NSC361056] returned a magratio of 0.7101.

In turn, `CN(C(=O)c1ccncc1)c1ccccc1` [NSC204976] gave a magratio in experiment [2] of 0.3045.

Take `Cc1ccc(S)cc1.[Pb]` [MAVDA-B-191]: the “activity in the yeast assay for SARS-CoV PLP” value (shortened to “activity … for SARS-CoV PLP”) in experiment [3] was “inactive”. Further, in experiment [4], the “activity in the yeast assay for Bat SL-CoVZC45 PLP” value (shortened to “activity … for Bat SL-CoVZC45 PLP”) was “inactive”.

On to `S=c1[nH]c2ccccc2n2cccc12` [NSC246415], for which the magratio in experiment [5] came out at 0.2265.

On to `CCOC(=O)C(=O)Cc1nc2ccccc2s1` [NSC38490], for which the magratio in experiment [2] came out at 0.2455.

Regarding `CCc1cc(=O)oc2cc(OC(=O)c3ccco3)ccc12` [CB6728297], the magratio in [6] stood at 0.2557; in experiment [7], 0.9863; in [8], 0.6214; in experiment [9], 1.394; in experiment [10], 0.9832; in [11] it was 0.5819. For the same molecule, the magratio was 0.5386 in [5]; 0.4338 in experiment [12]; 0.3619 in experiment [1]; 0.2591 in [13]; 0.4038 in experiment [2]; 0.2941 in experiment [14]. For the same molecule, the EC50 in experiment [15] turned out to be 5.6 µM.

On to `Cc1cc2c(cc1C)N(C(=O)CCl)CC(=O)N2` [NSC138389], for which the magratio turned out to be 0.2809 in experiment [7]; 0.2787 in experiment [8]; 0.3021 in [16]; 0.303 in [11]; 0.5885 in experiment [17]; 0.5699 in experiment [18]. The results for the magratio in [5], in experiment [1] and in [19] were 0.217, 0.6472 and 0.922, respectively.

Take `Cc1cc(N(C)C)ccc1N=Nc1ccc2ncccc2c1` [NSC680516]: in experiment [20], the magratio stood at 0.228.

As to `NC(N)=NC(=S)Nc1ccc(Cl)cc1` [NSC403374], the magratio is listed as 0.7395 in experiment [7], 0.2507 in experiment [8] and 0.3199 in [9].

`CNC(=O)Oc1c(OCc2ccccc2)ccnc1C` [MAVDA-B-201] gave an EC50 in experiment [3] of 0.4 to 1.7 µM. For the same molecule, the “trend in IC50 as a function of pre-incubation time with SARS-CoV-2 PLP” value (“trend in IC50 as a function” for short) in [21] was “downward trend in IC50”. In addition, the results for the IC50 in experiment [22] and in experiment [23] were 9.8 µM and 41.2 µM, respectively.

For `O=C(Oc1cncc(Cl)c1)c1cccs1` [MAC-5576, reference compound], the magratio is on record as 1.688 in experiment [6]; 0.9818 in [7]; 1.703 in experiment [8]; 2.282 in experiment [9]; 1.805 in experiment [10]; 1.559 in [11]. The magratio in experiment [5] is 0.8566; in [12] it was 0.7585; in [1], 1.841; in experiment [2] it was 1.133; in [14] it was 1.36; in [24], 1.579.

`CCOC(=O)c1c(NC(=S)NC)sc2c1CCCC2` [NSC280492] showed a magratio in experiment [5] of 0.288.

`CNC(=O)Oc1c(C)[nH]ccc1=O` [NSC287495]: in [3], the half-maximal effective concentration (EC50) came to 22.8 µM. Besides, the magratio in experiment [25] came to 0.3486; in experiment [20], 0.4201; in experiment [18], 0.9749; in experiment [19], 0.8718. Moreover, the “response of the SARS-CoV-2 PLP yeast model” value in experiment [26] is recorded as “relatively weak response”.

For `O=C(c1ccccc1)C(c1ccccc1)(c1ccccc1)c1ccccc1` [MAVDA-B-194], in experiment [3], the “activity … for SARS-CoV PLP” value is “inactive”. Also, in experiment [4], the “activity … for Bat SL-CoVZC45 PLP” value is “inactive”.

Molecule `CCOc1ccnc(C)c1OC(=O)NC` [MAVDA-B-190] yielded an EC50 in [3] of 0.4 to 1.7 µM. Besides, the “trend in IC50 as a function” value in experiment [21] was “downward trend in IC50”. Also, the figures for the IC50 in experiment [22] and in experiment [23] were 14.2 µM and above 50 µM, respectively.

As for `COc1cc(O)c(C(=O)/C=C/c2ccccc2)c(OC)c1` [NSC51351], the magratio in experiment [11] is given as 0.2725; in experiment [24] it was 0.2675.

In [3], `CNC(=O)Oc1c(OCC2CCCCC2)ccnc1C` [MAVDA-B-219] came in with an EC50 of 0.4 to 1.7 µM. For the same molecule, the “trend in IC50 as a function” value in [21] is “downward trend in IC50”. The IC50 is 3.5 µM in experiment [22], 14.9 µM in experiment [23] and 16.3 µM in experiment [27].

Turning to `O=C(Oc1ccc2ccc(=O)oc2c1)c1ccco1` [CB6778425], the magratio in [6] was determined as 0.4867; in experiment [7], 0.6675; in experiment [8] it was 0.8357; in experiment [9], 0.5878; in experiment [10] it was 0.8169; in [11], 0.7283. Also, the magratio was found to be 0.5241 in experiment [5]; 0.5812 in experiment [12]; 0.6941 in experiment [1]; 0.8027 in experiment [2]; 0.4915 in [14]. For the same molecule, the “shift of IC50 upon pre-incubation with SARS-CoV-2 3CL” value in [28] (addition of substrate at 0 and 20 minutes) is “shifts to lower IC50s”. Further, the IC50 in experiment [28] (biochemical fluorogenic assay, read-out: IC50, purified SARS-CoV-2 3CL protease) is 0.062 µM. Besides, the “activity within a live virus setting” value in experiment [29] is on record as “minimal activity”. In addition, the EC50 in experiment [15] stood at 0.782 µM.

As for `Cc1cccc(C)c1OCC(=O)N[C@@H](Cc1ccccc1)[C@@H](O)C[C@H](Cc1ccccc1)NC(=O)[C@H](C(C)C)N1CCCNC1=O` [Lopinavir], the values for the magratio in experiment [30] and in experiment [31] were 1.188 and 0.9971, respectively.

Take `O=C(Oc1ccc2ccc(=O)oc2c1)c1cccs1` [CB6762077]: the magratio in experiment [6] is given as 0.351; in experiment [7] it was 0.436; in experiment [8], 0.28; in [9] it was 0.6861; in experiment [10], 0.9258; in experiment [11], 0.5727. Moreover, the magratio in experiment [5] is reported as 0.7004; in experiment [12], 0.356; in experiment [1], 0.4066; in experiment [14], 0.2867. In [15], this molecule had an EC50 of 7.7 µM.

`CNC(=O)Oc1c(OC(C)C)ccnc1C` [MAVDA-B-217] had an EC50 in experiment [3] of 0.4 to 1.7 µM. Moreover, the “trend in IC50 as a function” value in experiment [21] was “downward trend in IC50”. Besides, the values for the IC50 in [22] and in experiment [23] were 5.8 µM and 49.8 µM, respectively.

On to GRL0617 [reference compound], for which the “response of the SARS-CoV-2 PLP yeast model” value in [26] was “blunted response”.

Regarding `N#Cc1c(N)nc(N)nc1Nc1ccc(Br)cc1` [NSC71866], the magratio is on record as 0.2846 in [16] and 0.2095 in experiment [24].

In experiment [2], `CCSc1nc(=S)cc(C)[nH]1` [NSC67307] came in with a magratio of 0.2279.

As for `CNCC(N)=O.Cl` [MAVDA-B-195], the “activity … for SARS-CoV PLP” value in [3] was “inactive”. The “activity … for Bat SL-CoVZC45 PLP” value in experiment [4] is “inactive”.

Molecule `CNC(=O)Oc1c(OC)ccnc1C` [MAVDA-B-116] showed an EC50 in experiment [3] of 0.4 to 1.7 µM. Moreover, in experiment [21], the “trend in IC50 as a function” value is given as “downward trend in IC50”. Moreover, the IC50 in experiment [22] was 18.1 µM; in experiment [23], 16.6 µM.

For orientation: EC50 means the midpoint of the concentration-response curve.
